Source: ChEMBL document CHEMBL5038613, “Synthesis, functional proteomics and biological evaluation of new 5-pyrazolyl ureas as potential anti-angiogenic compounds” (Eur J Med Chem, 2021)
Active and inactive are the calls of the source. No cut-off for these calls is given here.

Assays:
[1] = test system: HL-60(TB); assay: Antiproliferative activity against human HL-60(TB) cells assessed as inhibition of cell growth at 10 uM; type: functional; set-up: scale not given: the % may be the effect or the level left
[2] = test system: NCI-H522; assay: Antiproliferative activity against human NCI-H522 cells assessed as inhibition of cell growth at 10 uM; type: functional; set-up: scale not given: the % may be the effect or the level left
[3] = test system: CCRF-CEM; assay: Antiproliferative activity against human CCRF-CEM cells assessed as inhibition of cell growth at 10 uM; type: functional; set-up: scale not given: the % may be the effect or the level left
[4] = test system: HUVEC; assay: Anti-angiogenic activity against HUVEC cells assessed as decrease in ERK phosphorylation level at 20 uM preincubated for 10 mins followed by VEGF addition and measured after 20 mins in presence of Na3VO4 by western blot analysis; type: functional, cell-based; conditions: Homo sapiens, time 30.0 min
[5] = test system: HUVEC; assay: (§1) Antiproliferative activity against HUVEC assessed as inhibition of cell growth at 10 uM measured after 24 hrs by EdU incorporation based fluorescence microscopic analysis; type: toxicity; conditions: human, huvec, 24 h, 10 µM
[6] = test system: HUVEC; assay: Anti-angiogenic activity against HUVEC cells assessed as effect on SRC phosphorylation at 20 uM preincubated for 10 mins followed by VEGF addition and measured after 20 mins by western blot analysis; type: functional, cell-based; conditions: Homo sapiens, time 30.0 min
[7] = test system: HUVEC; assay: Antiproliferative activity against HUVEC assessed as inhibition of cell growth at 100 uM measured after 24 hrs by EdU incorporation based fluorescence microscopic analysis; type: toxicity; conditions: human
[8] = test system: HUVEC; assay: (§2) Antiproliferative activity against HUVEC assessed as inhibition of cell growth at 20 uM measured after 24 hrs by EdU incorporation based fluorescence microscopic analysis; type: toxicity; conditions: human, huvec, 24 h, 20 µM
[9] = test system: HUVEC; assay: Anti-angiogenic activity against HUVEC cells assessed as decrease in ERK phosphorylation level at 20 uM preincubated for 10 mins followed by VEGF addition and measured after 20 mins by western blot analysis; type: functional, cell-based; conditions: Homo sapiens, time 30.0 min
[10] = as §1; type: toxicity; conditions: human, HUVEC cells, read-out: Activity
[11] = test system: HUVEC; assay: Effect on MAPK1 expression level in HUVEC cells at 100 uM by western blot analysis; type: functional, cell-based; conditions: Homo sapiens
[12] = test system: HUVEC; assay: Effect on PP1gamma expression level in HUVEC cells at 1 uM by western blot analysis; type: functional, cell-based; conditions: Homo sapiens
[13] = test system: M14; assay: Antiproliferative activity against human M14 cells assessed as inhibition of cell growth at 10 uM; type: functional; set-up: scale not given: the % may be the effect or the level left
[14] = test system: RPMI-8226; assay: Antiproliferative activity against human RPMI-8226 cells assessed as inhibition of cell growth at 10 uM; type: functional; set-up: scale not given: the % may be the effect or the level left
[15] = test system: K562; assay: Antiproliferative activity against human K-562 cells assessed as inhibition of cell growth at 10 uM; type: functional; set-up: scale not given: the % may be the effect or the level left
[16] = as §2; type: toxicity; conditions: human, HUVEC cells, read-out: Activity
[17] = test system: SK-MEL-2; assay: Antiproliferative activity against human SK-MEL-2 cells assessed as inhibition of cell growth at 10 uM; type: functional; set-up: scale not given: the % may be the effect or the level left
[18] = test system: SK-MEL-5; assay: Antiproliferative activity against human SK-MEL-5 cells assessed as inhibition of cell growth at 10 uM; type: functional; set-up: scale not given: the % may be the effect or the level left
[19] = test system: HCT-116; assay: Antiproliferative activity against human HCT-116 cells assessed as inhibition of cell growth at 10 uM; type: functional; set-up: scale not given: the % may be the effect or the level left

Compound CCOC(=O)c1cnn(CC(C)O)c1NC(=O)NCc1ccccc1C(F)(F)F (configuration not stated) has an Activity [1] of 42%.

Compound CCOC(=O)c1cnn(CC(O)CC)c1NC(=O)NCc1cccc(F)c1 (configuration not stated) has an Activity [2] of 40%.

CCOC(=O)c1cnn(CC(C)O)c1NC(=O)NCc1cccc(F)c1 (configuration not stated) gave an Activity [3] of 100%.

With CCCC(O)Cn1ncc(C(=O)OCC)c1NC(=O)Nc1cccc(C(F)(F)F)c1 (configuration not stated) the Activity [4] was “inactive”, the Activity [5] was “Non-Toxic” and the Activity [6] was “inactive”. The Activity [7] was “Toxic”, the Activity [8] was “Non-Toxic” and the Activity [9] was “inactive”.

In the case of CCCC(O)Cn1ncc(C(=O)OCC)c1NC(=O)NCc1cccc(C(F)(F)F)c1 (configuration not stated), the Activity [4] is reported as “inactive”, the inhibition at 24 h, 10 µM [10] is reported as 20% and the Activity [11] is reported as “Active”. The Activity [12] was “Active”, the Activity [6] was “inactive” and the Activity [13] was 42%. For the same compound, the Activity [3] was 100%, the Activity [7] was “Toxic” and the Activity [14] was 53%. For the same compound, the Activity [2] was 54%, the Activity [15] was 53% and the inhibition at 24 h, 20 µM [16] was 30%. For the same compound, the Activity [9] was “Active”.

Work on CCOC(=O)c1cnn(CC(C)O)c1NC(=O)NCc1ccccc1F (configuration not stated) yielded an Activity [1] of 44%.

For CCCC(O)Cn1ncc(C(=O)OCC)c1NC(=O)NCc1ccccc1C(F)(F)F (configuration not stated), the Activity [2] was 59%.

With CCCC(O)Cn1ncc(C(=O)OCC)c1NC(=O)NCc1ccc(F)cc1 (configuration not stated) the Activity [2] was 53%.

Work on CCOC(=O)c1cnn(CC(C)O)c1NC(=O)NCc1ccc(F)cc1 (configuration not stated) yielded an Activity [1] of 53%.

With CCCC(O)Cn1ncc(C(=O)OCC)c1NC(=O)NCc1ccc(C(F)(F)F)cc1 (configuration not stated) the Activity [17] was 49%, the Activity [18] was 59% and the Activity [3] was 60%. The Activity [14] was 74%, the Activity [19] was 59% and the Activity [1] was 60%. The Activity [2] was 50% and the Activity [15] was 65%.

In the case of CCCC(O)Cn1ncc(C(=O)OCC)c1NC(=O)NCc1cccc(F)c1 (configuration not stated), the Activity [5] is reported as “Non-Toxic”, the Activity [7] is reported as “Toxic” and the Activity [1] is reported as 41%. For the same compound, the Activity [2] was 42%, the Activity [8] was “Non-Toxic” and the Activity [9] was “inactive”.

CCOC(=O)c1cnn(CC(O)CC)c1NC(=O)NCc1ccc(C(F)(F)F)cc1 (configuration not stated) showed an Activity [2] of 40%.

CCCC(O)Cn1ncc(C(=O)OCC)c1NC(=O)NCc1ccccc1F (configuration not stated) gave an Activity [2] of 44%.
